In patent US20250025443A1, “COMPOUNDS AND METHODS FOR TREATING CORONA VIRUSES” (CLEAR CREEK BIO, INC., priority 2021, published 2025):

These compounds were tested against SARS-CoV-2 Papain-Like Protease (PLpro) (Severe acute respiratory syndrome coronavirus 2 (2019-nCoV) (SARS-CoV-2), UniProt P0DTD1) (assay: biochemical). Conditions: PLpro enzymatic fluorescence assay; class symbols; read-out: PLpro IC50.

Cc1ccc2c(C3(NC(=O)c4cc(OC[C@@H]5CCN5C)ccc4C)CC3)cc(OCF)cc2n1 [Compound 823, (S)—N-(1-(7-(Fluoromethoxy)-2-methylquinolin-5-yl)cyclopropyl)-2-methyl-5-((1-methylazetidin-2-yl)methoxy)benzamide] and CCc1cc(C2(NC(=O)c3cc(OCC4CCN4C)ccc3C)CC2)c2ccccc2c1 (stereo not shown) [Compound 516, N-(1-(3-Ethylnaphthalen-1-yl)cyclopropyl)-2-methyl-5-((1-methylazetidin-2-yl)methoxy)benzamide] cannot be ordered by IC50: < 100 nM for the first, < 100 nM for the second.

COc1cc(C2(NC(=O)c3cc(OC[C@H]4C[C@H](F)CN4C)ccc3C)CC2)c2ccccc2c1 [Compound 531, 5-(((2R,4S)-4-Fluoro-1-methylpyrrolidin-2-yl)methoxy)-N-(1-(3-methoxynaphthalen-1-yl)cyclopropyl)-2-methylbenzamide] and Cc1ccc(OC[C@@H]2CCN2C)cc1C(=O)NC1(c2cc(-c3ncccn3)cc3ncccc23)CC1 [Compound 681, (S)-2-Methyl-5-((1-methylazetidin-2-yl)methoxy)-N-(1-(7-(pyrimidin-2-yl)quinolin-5-yl)cyclopropyl)benzamide] cannot be ordered by IC50: < 100 nM for the first, < 100 nM for the second.

First: Cc1ccc(OCC(C)N)cc1C(=O)NC1(c2cccc3cnccc23)CC1 (stereo not shown) [Compound 446, 5-(2-Aminopropoxy)-N-(1-(isoquinolin-5-yl)cyclopropyl)-2-methylbenzamide]
Second: COc1ccccc1C1(NC(=O)c2cc(OCCN(C)C)ccc2C)CC1 [Compound 277, 5-(2-(Dimethylamino)ethoxy)-N-(1-(2-methoxyphenyl)cyclopropyl)-2-methylbenzamide]
The IC50 of the first is lower: < 100 nM for the first, > 5000 nM for the second.

Same assay, conditions: SARS-CoV-2 PLpro enzymatic fluorescence assay; read-out: PLpro IC50

COc1cc(C2(NC(=O)c3cc(OC[C@@H]4C[C@@H](F)CN4)ccc3C)CC2)c2ccccc2c1 [Compound 490, 5-(((2S,4R)-4-Fluoropyrrolidin-2-yl)methoxy)-N-(1-(3-methoxynaphthalen-1-yl)cyclopropyl)-2-methylbenzamide] and Cc1ccc(OC[C@H]2C[C@@H](F)CN2)cc1C(=O)NC1(c2cccc3ccccc23)CC1 (single isomer, unassigned) [Compound 438] cannot be ordered by IC50: < 100 nM for the first, < 100 nM for the second.

Cc1cc2cn[nH]c2cc1C(=O)NC1(c2cccc3ccccc23)CC1 [Compound 176, 5-Methyl-N-(1-(naphthalen-1-yl)cyclopropyl)-1H-indazole-6-carboxamide] and Cc1ccc(CCC(N)=O)cc1C(=O)NC1(c2cccc3ccccc23)CC1 [Compound 452, 5-(3-Amino-3-oxopropyl)-2-methyl-N-(1-(naphthalen-1-yl)cyclopropyl)benzamide] fall in the same range of IC50: 100 to 1000 nM for the first, 100 to 1000 nM for the second.

C=Cc1cc(C2(NC(=O)c3cc(O[C@@H](C)[C@@H]4CCN4C)ccc3C)CC2)c2cccnc2c1 (relative stereo) [Compound 757, 2-Methyl-5-((S)-1-((S)-1-methylazetidin-2-yl)ethoxy)-N-(1-(7-vinylquinolin-5-yl)cyclopropyl)benzamide] and Cc1ccc(OC[C@@H]2CCN2)cc1C(=O)NC1(c2cccc3cc(F)ccc23)CC1 [Compound 392, (S)-5-(Azetidin-2-ylmethoxy)-N-(1-(6-fluoronaphthalen-1-yl)cyclopropyl)-2-methylbenzamide] cannot be ordered by IC50: < 100 nM for the first, < 100 nM for the second.

Compared with CC(c1cccc2ccccc12)N1CCc2ccc(N)cc2C1 (stereo not shown) [Compound 135, 2-(1-(Naphthalen-1-yl)ethyl)-1,2,3,4-tetrahydroisoquinolin-7-amine], Cc1cc2cc(CN)[nH]c2cc1C(=O)N[C@H](C)c1cccc2ccccc12 [Compound 148, (R)-2-(Aminomethyl)-5-methyl-N-(1-(naphthalen-1-yl)ethyl)-1H-indole-6-carboxamide] is lower in IC50: 1000 to 5000 nM for the first, 100 to 1000 nM for the second. The second is the more potent here.

First: Cc1cc2cc(CN)[nH]c2cc1C(=O)NC1(c2ccccc2)CC1 [Compound 246, 2-(Aminomethyl)-5-methyl-N-(1-phenylcyclopropyl)-1H-indole-6-carboxamide]
Second: Cc1ccc(COC2CN(C)C2)cc1C(=O)NC1(c2cccc3ccccc23)CC1 [Compound 447, 2-Methyl-5-(((1-methylazetidin-3-yl)oxy)methyl)-N-(1-(naphthalen-1-yl)cyclopropyl)benzamide]
The IC50 of the first is higher: > 5000 nM for the first, 100 to 1000 nM for the second. The second is the more potent here.
